Consider four compounds from patent publication US8871681B2, “Herbicidal compositions comprising 4-amino-3-chloro-5-fluoro-6-(4-chloro-2-fluoro-3-methoxyphenyl) pyridine-2-carboxylic acid or a derivative thereof and certain sulfonylureas” (Dow AgroSciences LLC, priority 2012, dated 2014).

What all share (assay): Postemergence foliar-applied weed control, direct seeded rice, greenhouse (Example I)
The test system of experiment [1] is LEFCH (Leptochloa chinensis, Chinese sprangletop). Format: in vivo, Leptochloa chinensis (L.) Nees. Particulars: Dinebra chinensis, post-emergence, read-out: Visual Weed Control (%) Obs; for pest or weed control at 8.75 g/ha: 8.75 gae/ha. The essentials:
(§1)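 Greenhouse-grown plants in loam/sandy loam–grit soil (14 h photoperiod, ~29/26 °C) were sprayed postemergence at the first to fourth true leaf stage. Compound A (acid equivalent basis) and ALS-inhibiting sulfonylureas (active ingredient basis) were applied alone and in combination in 1.25% (v/v) crop oil concentrate at 187 L/ha by track sprayer; controls received solvent blank.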

Experiment [2] has as its system BRAPP (Brachiaria platyphylla, broadleaf signalgrass). The experiment is classed as in vivo, Brachiaria platyphylla (Griseb.) Nash. Particulars: Urochloa platyphylla, post-emergence, read-out: Visual Weed Control (%) Obs; for pest or weed control at 17.5 g/ha: 17.5 gai/ha. The essentials:
as §1

The test system of experiment [3] is ECHCG (Echinochloa crusgalli, barnyardgrass). The experiment is classed as in vivo, Echinochloa crusgalli (L.) Beauv. An excerpt:
Seeds or nutlets of the desired test plant species were planted in a soil matrix prepared by mixing a loam or sandy loam soil (e.g., 28.6 percent silt, 18.8 percent clay, and 52.6 percent sand, with a pH of about 5.8 and an organic matter content of about 1.8 percent) and calcareous grit in an 80 to 20 ratio. The soil matrix was contained in plastic pots with a volume of 1 quart and a surface area of 83.6 square centimeters (cm^2). When required to ensure good germination and healthy plants, a fungicide treatment and/or other chemical or physical treatment was applied. The plants were grown for 8-22 days in a greenhouse with an approximate 14 h photoperiod which was maintained at about 29° C. during the day and 26° C. during the night. Nutrients (Peters Excel® 15-5-15 5-Ca 2-Mg and iron chelate) were applied in the irrigation solution as needed and water was added on a regular basis. Supplemental lighting was provided with overhead metal halide 1000-Watt lamps as necessary. The plants were employed for testing when they reached the first through fourth true leaf stage.
Treatments consisted of the acid or esters of 4-amino-3-chloro-5-fluoro-6-(4-chloro-2-fluoro-3-methoxy-phenyl)pyridine-2-carboxylic acid (Compound A), each formulated as an SC, and various herbicidal components alone and in combination. Forms of compound A were applied on an acid equivalent basis.
Other herbicidal components were applied on an active ingredient basis and included acetolactate synthase (ALS)-inhibiting herbicides (sulfonylurea chemical class) azimsulfuron formulated as Gulliver®, bensulfuron-methyl formulated as Londax® 60DF, cyclosulfamuron (technical material), ethoxysulfuron formulated as Sunrice® 15 WDG, flazasulfuron formulated as Katana®, flucetosulfuron formulated as Sukedachi® 1KG G, foramsulfuron formulated as Option®, imazosulfuron formulated as Brazzos® WG, iodosulfuron-methyl-sodium formulated as Hussar®, metsulfuron-methyl formulated as Lorate®, nicosulfuron formulated as Accent®, orthosulfamuron formulated as Strada® WG, primisulfuron-methyl (technical material), propyrisulfuron formulated as Zeta One®, rimsulfuron formulated as Matrix® WG, sulfometuron-methyl formulated as Oust®, and trifloxysulfuron-sodium formulated as Monument® 75WG.
Treatment requirements were calculated based upon the rates being tested, the concentration of active ingredient or acid equivalent in the formulation, and a 12 mL application volume at a rate of 187 L/ha.
For treatments comprised of formulated compounds, measured amounts of compounds were placed individually in 25 mL glass vials and diluted in a volume of 1.25% (v/v) Agri-Dex® crop oil concentrated to obtain 12× stock solutions. […] Application solutions were prepared by adding an appropriate amount of each stock solution (e.g., 1 mL) and diluted to the appropriate final concentrations with the addition of 10 mL of an aqueous mixture of 1.25% (v/v) crop oil concentrate so that the final spray solutions contained 1.25+/−0.05% (v/v) Agrcrop oil concentrate.
For treatments comprised of formulated and technical compounds, weighed amounts of the technical materials were placed individually in 25 mL glass vials and dissolved in a volume of 97:3 v/v acetone/DMSO to obtain 12× stock solutions, and measured amounts of the formulated compounds were placed individually in 25 mL glass vials and diluted in a volume of 1.25% (v/v) crop oil concentrate to obtain 12× stock solutions. […] Application solutions were prepared by adding an appropriate amount of each stock solution (e.g., 1 mL) and diluted to the appropriate final concentrations with the addition of an appropriate amount of an aqueous mixture of 1.5% (v/v) crop oil concentrate so that the final spray solutions contained 1.25% (v/v) crop oil concentrate. […]

Experiment [4] has as its system CYPIR (Cyperus iria, rice flatsedge). The experiment is classed as in vivo, Cyperus iria L. The essentials: as §1

Where two headings read alike, the source gives them in different places.

As for `COC(=O)c1ccccc1CS(=O)(=O)NC(=O)Nc1nc(OC)cc(OC)n1` [Bensulfuron-methyl, methyl 2-[[[[[(4,6-dimethoxy-2-pyrimidinyl)amino]carbonyl]amino]sulfonyl]methyl]benzoate, reference compound], the pest or weed control at 70 g/ha in experiment [1] (480 h, 20 DAA, 70 gai/ha) is 5%. Also, the pest or weed control at 17.5 g/ha stood at 10% in experiment [1] (504 h, 21 DAA, 17.5 gai/ha); 0% in experiment [2] (504 h, 21 DAA); 0% in experiment [2] (504 h, 21 DAA, second series). For the same compound, the pest or weed control at 35 g/ha in experiment [1] (504 h, 21 DAA, 35 gai/ha) was found to be 10%; in experiment [2] (504 h, 21 DAA, 35 gai/ha, second series), 0%. The pest or weed control at 4.38 g/ha in experiment [2] (504 h, 21 DAA, 4.38 gai/ha) is 0%. In experiment [2] (504 h, 21 DAA, 8.75 gai/ha), the pest or weed control at 8.75 g/ha turned out to be 0%. Moreover, the “Visual Weed Control (%) Obs” value in experiment [3] (21 DAA, 17.5 gai/ha) is 0%; in experiment [3] (21 DAA, 35 gai/ha), 0%; in experiment [3] (27 DAA, 4.38 gai/ha), 0%; in experiment [3] (27 DAA, 8.75 gai/ha), 0%; in experiment [3] (27 DAA, 17.5 gai/ha), 0%.

As to `COc1c(Cl)ccc(-c2nc(C(=O)O)c(Cl)c(N)c2F)c1F` [Compound A Acid, 4-amino-3-chloro-5-fluoro-6-(4-chloro-2-fluoro-3-methoxy-phenyl)pyridine-2-carboxylic acid], the pest or weed control at 4.38 g/ha in experiment [1] (480 h, 20 DAA, 4.38 gae/ha) was 0%; in experiment [2] (480 h, 20 DAA, 4.38 gae/ha) it was 10%; in experiment [2] (504 h, 21 DAA, 4.38 gae/ha), 40%; in experiment [2] (504 h, 21 DAA, 4.38 gae/ha, second series), 50%. Further, the pest or weed control at 5.3 g/ha in experiment [1] (480 h, 20 DAA, 5.3 gae/ha) was found to be 0%. Also, the pest or weed control at 8.75 g/ha in experiment [1] (480 h, 20 DAA) was 0%; in experiment [1] (504 h, 21 DAA), 40%. Moreover, in experiment [1] (480 h, 20 DAA, 10.6 gae/ha), the pest or weed control at 10.6 g/ha is 10%. For the same compound, the pest or weed control at 17.5 g/ha in experiment [1] (480 h, 20 DAA, 17.5 gae/ha) is 10%; in experiment [1] (504 h, 21 DAA, 17.5 gae/ha), 30%. Further, the pest or weed control at 19.4 g/ha in experiment [1] (480 h, 20 DAA, 19.4 gae/ha) was 5%. Also, the pest or weed control at 21.2 g/ha in experiment [1] (480 h, 20 DAA, 21.2 gae/ha) was found to be 15%. The “Visual Weed Control (%) Obs” value is on record as 70% in experiment [4] (21 DAA, 4.38 gae/ha); 60% in experiment [4] (22 DAA, 8 gae/ha); 90% in experiment [4] (22 DAA, 16 gae/ha); 15% in experiment [3] (21 DAA, 4.38 gae/ha); 50% in experiment [3] (21 DAA, 8.75 gae/ha).

Turning to `COCC(=O)OC(c1ncccc1S(=O)(=O)NC(=O)Nc1nc(OC)cc(OC)n1)C(C)F` (stereo not shown) [Flucetosulfuron, 1-[3-[[[[(4,6-dimethoxy-2-pyrimidinyl)amino]carbonyl]amino]sulfonyl]-2-pyridinyl]-2-fluoropropyl 2-methoxyacetate], the pest or weed control at 0.05 g/ha stood at 0% in experiment [1] (504 h, 21 DAA, 0.05 gai/ha) and 0% in experiment [2] (504 h, 21 DAA, 0.05 gai/ha). The pest or weed control at 0.1 g/ha worked out at 0% in experiment [1] (504 h, 21 DAA, 0.1 gai/ha) and 0% in experiment [2] (504 h, 21 DAA, 0.1 gai/ha). Further, the pest or weed control at 1.7 g/ha came to 0% in experiment [1] (528 h, 22 DAA, 1.7 gai/ha) and 0% in experiment [2] (528 h, 22 DAA, 1.7 gai/ha). Besides, the pest or weed control at 5 g/ha in experiment [1] (528 h, 22 DAA, 5 gai/ha) came to 0%. Further, the “Visual Weed Control (%) Obs” value in experiment [4] (21 DAA, 0.05 gai/ha) came to 0%; in experiment [4] (21 DAA, 0.1 gai/ha) it was 0%; in experiment [4] (21 DAA, 0.2 gai/ha) it was 20%. Besides, the pest or weed control at 0.2 g/ha in experiment [2] (504 h, 21 DAA, 0.2 gai/ha) was determined as 0%.

Turning to `COC(=O)c1ccccc1S(=O)(=O)NC(=O)Nc1nc(C)nc(OC)n1` [Metsulfuron-methyl, methyl 2-[[[[(4-methoxy-6-methyl-1,3,5-triazin-2-yl)amino]carbonyl]amino]sulfonyl]benzoate, reference compound], the pest or weed control at 7.5 g/ha in experiment [2] (480 h, 20 DAA, 7.5 gai/ha) came to 0%. In experiment [2] (480 h, 20 DAA, 15 gai/ha), the pest or weed control at 15 g/ha was 20%.
